Key:
Kv1.3 potassium channel = target: T1, Kv1.3 potassium channel (Homo sapiens, UniProt P22001); test: Kv1.3 potassium channel blocker activity, automated whole-cell patch clamp (Patchliner); format: cell-based; settings: CHO-K1 cells stably expressing Kv1.3; whole cell current inhibition; read-out: Kv1.3_IC50
T1 construct: expressed in transfected cells
Procedure, shortened: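 CHO-K1 cells stably expressing Kv1.3, automated whole-cell patch clamp. Currents evoked by 100 ms steps from −90 mV holding to +40 mV at 0.1 Hz, sampled at 10 kHz unfiltered, P/4 leak subtraction; peak current inhibition measured, compound incubation ≤10 s between pulse trains.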

hERG channel = hERG channel (Homo sapiens, UniProt Q12809); test: hERG electrophysiology, automated whole-cell patch clamp (Patchliner)
Sequence of hERG channel (Q12809 whole entry): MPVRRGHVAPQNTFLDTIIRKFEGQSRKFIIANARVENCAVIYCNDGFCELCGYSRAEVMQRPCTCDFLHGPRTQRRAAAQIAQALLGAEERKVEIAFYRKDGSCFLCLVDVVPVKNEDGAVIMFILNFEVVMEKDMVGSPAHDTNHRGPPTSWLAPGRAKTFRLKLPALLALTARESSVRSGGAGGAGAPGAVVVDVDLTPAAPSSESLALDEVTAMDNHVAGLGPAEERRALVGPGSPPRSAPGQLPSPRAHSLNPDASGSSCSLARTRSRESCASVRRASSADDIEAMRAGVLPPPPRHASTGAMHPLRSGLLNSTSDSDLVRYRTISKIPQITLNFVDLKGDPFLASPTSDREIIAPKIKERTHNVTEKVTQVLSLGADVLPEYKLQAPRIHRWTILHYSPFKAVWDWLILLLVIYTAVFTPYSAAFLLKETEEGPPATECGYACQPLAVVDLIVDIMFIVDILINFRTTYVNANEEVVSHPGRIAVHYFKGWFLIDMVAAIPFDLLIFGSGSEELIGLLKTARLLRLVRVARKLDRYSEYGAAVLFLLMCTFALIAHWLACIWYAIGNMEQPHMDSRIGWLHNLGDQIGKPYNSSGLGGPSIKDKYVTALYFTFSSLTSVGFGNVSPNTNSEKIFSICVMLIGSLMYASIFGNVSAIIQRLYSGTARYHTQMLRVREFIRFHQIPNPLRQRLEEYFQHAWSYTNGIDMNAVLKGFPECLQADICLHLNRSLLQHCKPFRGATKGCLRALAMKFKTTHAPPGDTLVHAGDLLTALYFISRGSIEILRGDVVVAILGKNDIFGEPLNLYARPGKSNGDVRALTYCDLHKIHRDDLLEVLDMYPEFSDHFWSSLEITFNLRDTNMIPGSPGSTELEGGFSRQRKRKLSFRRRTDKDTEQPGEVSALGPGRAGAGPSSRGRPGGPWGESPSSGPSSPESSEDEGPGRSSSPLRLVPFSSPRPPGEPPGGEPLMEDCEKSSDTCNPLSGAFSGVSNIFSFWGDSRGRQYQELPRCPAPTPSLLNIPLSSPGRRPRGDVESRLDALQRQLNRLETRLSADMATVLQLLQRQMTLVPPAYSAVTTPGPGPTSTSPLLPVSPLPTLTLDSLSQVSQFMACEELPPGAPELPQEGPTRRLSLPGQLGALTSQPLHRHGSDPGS

T1 sequence (P22001 whole entry): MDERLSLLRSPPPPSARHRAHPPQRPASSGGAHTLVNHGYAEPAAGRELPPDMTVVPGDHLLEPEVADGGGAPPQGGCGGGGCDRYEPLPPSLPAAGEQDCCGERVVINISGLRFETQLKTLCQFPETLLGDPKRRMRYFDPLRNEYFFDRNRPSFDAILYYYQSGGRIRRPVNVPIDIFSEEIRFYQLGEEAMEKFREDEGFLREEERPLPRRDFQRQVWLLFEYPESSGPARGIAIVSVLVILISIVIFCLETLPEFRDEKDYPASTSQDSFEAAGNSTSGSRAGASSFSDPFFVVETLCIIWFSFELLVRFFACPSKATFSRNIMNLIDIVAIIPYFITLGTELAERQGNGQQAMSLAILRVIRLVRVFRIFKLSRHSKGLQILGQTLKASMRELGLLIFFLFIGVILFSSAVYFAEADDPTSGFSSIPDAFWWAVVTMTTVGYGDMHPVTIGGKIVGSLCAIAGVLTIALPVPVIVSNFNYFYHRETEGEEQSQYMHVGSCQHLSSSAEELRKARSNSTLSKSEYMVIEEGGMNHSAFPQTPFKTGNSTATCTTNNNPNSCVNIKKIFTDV

N[C@@H](c1cc(Cl)c(Cl)cc1O)C1CCN(C(=O)[C@H]2CNCCO2)CC1 [Compound 97, (4-((R)-amino(4,5-dichloro-2-hydroxyphenyl)methyl)piperidin-1-yl)((R)-morpholin-2-yl)methanone trifluoroacetic acid]
IC50 (Kv1.3 potassium channel): < 0.5 µM
IC50 (hERG channel): > 30 µM

C[C@@]1(C(=O)N2CCC([C@@H](N)c3cc(Cl)c(Cl)cc3O)CC2)CCCN1 [Compound 98, (4-((R)-amino(4,5-dichloro-2-hydroxyphenyl)methyl)piperidin-1-yl)((S)-2-methylpyrrolidin-2-yl)methanone]
IC50 (Kv1.3 potassium channel): < 0.5 µM
IC50 (hERG channel): > 30 µM

N[C@@H](c1cc(Cl)c(Cl)cc1O)C1CCN(C(=O)[C@@H]2CNCCO2)CC1 [Compound 99, (4-((R)-amino(4,5-dichloro-2-hydroxyphenyl)methyl)piperidin-1-yl)((S)-morpholin-2-yl)methanone]
IC50 (Kv1.3 potassium channel): < 0.5 µM
IC50 (hERG channel): > 30 µM

N[C@@H](c1cc(Cl)c(Cl)cc1O)C1CCN(C(=O)[C@@H]2CCN2)CC1 [Compound 100, 2-[(R)-amino([1-[(2S)-azetidine-2-carbonyl]piperidin-4-yl])methyl]-4,5-dichlorophenol]
IC50 (Kv1.3 potassium channel): < 0.5 µM
IC50 (hERG channel): > 30 µM

O=C([C@@H]1CCNC1)N1CCC(C(O)c2cc(Cl)c(Cl)cc2O)CC1 (stereo partly drawn) [Compound 101, 4,5-dichloro-2-[hydroxy([1-[(3R)-pyrrolidine-3-carbonyl]piperidin-4-yl])methyl]phenol]
IC50 (Kv1.3 potassium channel): < 0.5 µM
IC50 (hERG channel): > 30 µM

C[C@H](O)C(=O)N1CCC([C@@H](N)c2cc(Cl)c(Cl)cc2O)CC1 [Compound 102, (S)-1-(4-((R)-amino(4,5-dichloro-2-hydroxyphenyl)methyl)piperidin-1-yl)-2-hydroxypropan-1-one]
IC50 (Kv1.3 potassium channel): < 0.5 µM
IC50 (hERG channel): > 30 µM

N[C@@H](c1cc(Cl)c(Cl)cc1O)C1CCN(C(=O)CC2CNC2)CC1 [Compound 103, (R)-1-(4-(amino(4,5-dichloro-2-hydroxyphenyl)methyl)piperidin-1-yl)-2-(azetidin-3-yl)ethanone trifluoroacetic acid]
IC50 (Kv1.3 potassium channel): < 0.5 µM
IC50 (hERG channel): > 30 µM

CN1CC[C@@H](C(=O)N2CCC([C@@H](N)c3cc(Cl)c(Cl)cc3O)CC2)C1 [Compound 104, 2-[(R)-amino([1-[(3R)-1-methylpyrrolidine-3-carbonyl]piperidin-4-yl])methyl]-4,5-dichlorophenol]
IC50 (Kv1.3 potassium channel): < 0.5 µM
IC50 (hERG channel): > 30 µM

C[C@@H](O)C(=O)N1CCC([C@@H](N)c2cc(Cl)c(Cl)cc2O)CC1 [Compound 105, (R)-1-(4-((R)-amino(4,5-dichloro-2-hydroxyphenyl)methyl)piperidin-1-yl)-2-hydroxypropan-1-one]
IC50 (Kv1.3 potassium channel): < 10 µM
IC50 (hERG channel): > 30 µM

CN1CC[C@H](C(=O)N2CCC([C@@H](N)c3cc(Cl)c(Cl)cc3O)CC2)C1 [Compound 106, (4-((R)-amino(4,5-dichloro-2-hydroxyphenyl)methyl)piperidin-1-yl)((S)-1-methylpyrrolidin-3-yl)methanone]
IC50 (Kv1.3 potassium channel): < 0.5 µM
IC50 (hERG channel): > 30 µM

N[C@@H](c1cc(Cl)c(Cl)cc1O)C1CCN(S(=O)(=O)C2CNC2)CC1 [Compound 107, 2-[(R)-amino[1-(azetidine-3-sulfonyl)piperidin-4-yl]methyl]-4,5-dichlorophenol]
IC50 (Kv1.3 potassium channel): < 0.5 µM
IC50 (hERG channel): > 30 µM

CC1(C(=O)N2CCC([C@@H](N)c3cc(Cl)c(Cl)cc3O)CC2)CNC1 [Compound 109, (R)-(4-(amino(4,5-dichloro-2-hydroxyphenyl)methyl)piperidin-1-yl)(3-methylazetidin-3-yl)methanone]
IC50 (Kv1.3 potassium channel): < 0.5 µM
IC50 (hERG channel): > 30 µM

N[C@@H](c1cc(Cl)c(Cl)cc1O)C1CCN(S(=O)(=O)C2CCNC2)CC1 (stereo partly drawn) [Compound 110, 2-[(R)-amino[1-(pyrrolidine-3-sulfonyl)piperidin-4-yl]methyl]-4,5-dichlorophenol]
IC50 (Kv1.3 potassium channel): < 0.5 µM
IC50 (hERG channel): > 30 µM

O=C([C@@H]1CCNC1)N1CCC(Cc2cc(Cl)c(Cl)cc2O)CC1 [Compound 111, 4,5-dichloro-2-([1-[(3R)-pyrrolidine-3-carbonyl]piperidin-4-yl]methyl)phenol Trifluoroacetic Acid]
IC50 (Kv1.3 potassium channel): < 0.5 µM
IC50 (hERG channel): < 30 µM

N[C@@H](c1cc(Cl)c(Cl)cc1O)C1CCN(C(=O)C2(F)CNC2)CC1 [Compound 114, 2-[(R)-amino[1-(3-fluoroazetidine-3-carbonyl)piperidin-4-yl]methyl]-4,5-dichlorophenol]
IC50 (Kv1.3 potassium channel): < 0.5 µM
IC50 (hERG channel): > 30 µM

N[C@@H](c1cc(Cl)c(Cl)cc1O)C1CCN(C(=O)C(O)CO)CC1 (stereo partly drawn) [Compound 117, 1-(4-((R)-amino(4,5-dichloro-2-hydroxyphenyl)methyl)piperidin-1-yl)-2,3-dihydroxypropan-1-one]
IC50 (Kv1.3 potassium channel): < 0.5 µM
IC50 (hERG channel): > 30 µM

O=C([C@@H]1CCNC1)N1CCC(Cc2c(O)ccc(Cl)c2Cl)CC1 [Compound 122, 3,4-dichloro-2-([1-[(3R)-pyrrolidine-3-carbonyl]piperidin-4-yl]methyl)phenol Trifluoroacetic Acid]
IC50 (Kv1.3 potassium channel): < 0.5 µM
IC50 (hERG channel): < 30 µM

O=C([C@@H]1CCNC1)N1CCC(C(O)c2c(O)ccc(Cl)c2Cl)CC1 (stereo partly drawn) [Compound 126, 3,4-dichloro-2-[hydroxy([1-[(3R)-pyrrolidine-3-carbonyl]piperidin-4-yl])methyl]phenol Trifluoroacetic Acid]
IC50 (Kv1.3 potassium channel): < 10 µM
IC50 (hERG channel): > 30 µM

N[C@@H](c1cc(Cl)c(Cl)cc1O)C1CCN(C(=O)c2cn[nH]c2)CC1 [Compound 131, 2-[(R)-amino[1-(1H-pyrazole-4-carbonyl)piperidin-4-yl]methyl]-4,5-dichlorophenol trifluoroacetic acid]
IC50 (Kv1.3 potassium channel): < 0.5 µM
IC50 (hERG channel): > 30 µM

COCCS(=O)(=O)N1CCC([C@@H](N)c2cc(Cl)c(Cl)cc2O)CC1 [Compound 132, 2-[(R)-amino[1-(2-methoxyethanesulfonyl)piperidin-4-yl]methyl]-4,5-dichlorophenol Trifluoroacetic Acid]
IC50 (Kv1.3 potassium channel): < 10 µM
IC50 (hERG channel): < 30 µM

N[C@@H](c1cc(Cl)c(Cl)cc1O)C1CCN(C(=O)CCO)CC1 [Compound 133, 1-[4-[(R)-amino(4,5-dichloro-2-hydroxyphenyl)methyl]piperidin-1-yl]-3-hydroxypropan-1-one trifluoroacetic acid]
IC50 (Kv1.3 potassium channel): < 0.5 µM
IC50 (hERG channel): > 30 µM

COCC(=O)N1CCC([C@@H](N)c2cc(Cl)c(Cl)cc2O)CC1 [Compound 134, 1-[4-[(R)-amino(4,5-dichloro-2-hydroxyphenyl)methyl]piperidin-1-yl]-2-methoxyethan-1-one trifluoroacetic acid]
IC50 (Kv1.3 potassium channel): < 0.5 µM
IC50 (hERG channel): < 30 µM

N[C@@H](c1cc(Cl)c(Cl)cc1O)C1CCN(C(=O)CO)CC1 [Compound 135, 1-[4-[(R)-amino(4,5-dichloro-2-hydroxyphenyl)methyl]piperidin-1-yl]-2-hydroxyethan-1-one trifluoroacetic acid]
IC50 (Kv1.3 potassium channel): < 0.5 µM
IC50 (hERG channel): > 30 µM

N[C@@H](c1cc(Cl)c(Cl)cc1O)C1CCN(C(=O)c2ccn[nH]2)CC1 [Compound 136, 2-[(R)-amino[1-(1H-pyrazole-3-carbonyl)piperidin-4-yl]methyl]-4,5-dichlorophenol trifluoroacetic acid]
IC50 (Kv1.3 potassium channel): < 10 µM
IC50 (hERG channel): > 30 µM

N[C@@H](c1cc(Cl)c(Cl)cc1O)C1CCN(C(=O)C2COCCO2)CC1 (stereo partly drawn) [Compound 137, 2-[(R)-amino[1-(1,4-dioxane-2-carbonyl)piperidin-4-yl]methyl]-4,5-dichlorophenol trifluoroacetic acid]
IC50 (Kv1.3 potassium channel): < 0.5 µM
IC50 (hERG channel): < 30 µM

N[C@@H](c1cc(Cl)c(Cl)cc1O)C1CCN(C(=O)[C@H]2C[C@@H](O)C2)CC1 [Compound 138, 2-[(R)-amino([1-[(1S,3S)-3-hydroxycyclo-butanecarbonyl]piperidin-4-yl])methyl]-4,5-dichlorophenol trifluoroacetic acid]
IC50 (Kv1.3 potassium channel): < 10 µM
IC50 (hERG channel): > 30 µM

N[C@@H](c1cc(Cl)c(Cl)cc1O)C1CCN(C(=O)[C@H]2C[C@H](O)C2)CC1 [Compound 139, 2-[(R)-amino([1-[(1R,3R)-3-hydroxycyclo-butanecarbonyl]piperidin-4-yl])methyl]-4,5-dichlorophenol trifluoroacetic acid]
IC50 (Kv1.3 potassium channel): < 0.5 µM
IC50 (hERG channel): > 30 µM

N[C@@H](c1cc(Cl)c(Cl)cc1O)C1CCN(C(=O)C2(O)CC2)CC1 [Compound 140, 2-[(R)-amino[1-(1-hydroxycyclo-propanecarbonyl)piperidin-4-yl]methyl]-4,5-dichlorophenol trifluoroacetic acid]
IC50 (Kv1.3 potassium channel): < 10 µM
IC50 (hERG channel): < 30 µM

N[C@@H](c1cc(Cl)c(Cl)cc1O)C1CCN(C(=O)N2CCNCC2)CC1 [Compound 141, 2-[(R)-amino[1-(piperazine-1-carbonyl)piperidin-4-yl]methyl]-4,5-dichlorophenol Trifluoroacetic Acid]
IC50 (Kv1.3 potassium channel): < 0.5 µM
IC50 (hERG channel): > 30 µM

CC(C)(CO)C(=O)N1CCC([C@@H](N)c2cc(Cl)c(Cl)cc2O)CC1 [Compound 142, 1-[4-[(R)-amino(4,5-dichloro-2-hydroxyphenyl)methyl]piperidin-1-yl]-3-hydroxy-2,2-dimethylpropan-1-one trifluoroacetic acid]
IC50 (Kv1.3 potassium channel): < 10 µM
IC50 (hERG channel): < 30 µM

N[C@@H](c1cc(Cl)c(Cl)cc1O)C1CCN(C(=O)C2(O)COC2)CC1 [Compound 143, 3-[4-[(R)-amino(4,5-dichloro-2-hydroxyphenyl)methyl]piperidine-1-carbonyl]oxetan-3-ol]
IC50 (Kv1.3 potassium channel): < 10 µM
IC50 (hERG channel): > 30 µM

N[C@@H](c1cc(Cl)c(Cl)cc1O)C1CCN(C(=O)C2COCCN2)CC1 (stereo partly drawn) [Compound 144, 2-[(R)-amino[1-(morpholine-3-carbonyl)piperidin-4-yl]methyl]-4,5-dichlorophenol trifluoroacetic acid]
IC50 (Kv1.3 potassium channel): < 10 µM
IC50 (hERG channel): > 30 µM

Reference: patent publication US20230023559A1, “ARYLMETHYLENE HETEROCYCLIC COMPOUNDS AS KV1.3 POTASSIUM SHAKER CHANNEL BLOCKERS” (D. E. Shaw Research, LLC, priority 2019, published 2023)
